Measurements: PMC11224556, “Next-generation of BBQ analogues that selectively target breast cancer” (Frontiers in Chemistry, 2024)

What was measured:
AhR = molecular target: T1, AhR (Homo sapiens, UniProt P35869); assay: AhR transcription reporter assay (HT29-Lucia AhR cells); type: cell-based; settings: 24 h
T1 construct: This cell line stably expresses the secreted Lucia luciferase reporter gene under the control of a minimal promoter; host or cells: HT29-Lucia AhR reporter cells
T1 sequence (P35869 11-848): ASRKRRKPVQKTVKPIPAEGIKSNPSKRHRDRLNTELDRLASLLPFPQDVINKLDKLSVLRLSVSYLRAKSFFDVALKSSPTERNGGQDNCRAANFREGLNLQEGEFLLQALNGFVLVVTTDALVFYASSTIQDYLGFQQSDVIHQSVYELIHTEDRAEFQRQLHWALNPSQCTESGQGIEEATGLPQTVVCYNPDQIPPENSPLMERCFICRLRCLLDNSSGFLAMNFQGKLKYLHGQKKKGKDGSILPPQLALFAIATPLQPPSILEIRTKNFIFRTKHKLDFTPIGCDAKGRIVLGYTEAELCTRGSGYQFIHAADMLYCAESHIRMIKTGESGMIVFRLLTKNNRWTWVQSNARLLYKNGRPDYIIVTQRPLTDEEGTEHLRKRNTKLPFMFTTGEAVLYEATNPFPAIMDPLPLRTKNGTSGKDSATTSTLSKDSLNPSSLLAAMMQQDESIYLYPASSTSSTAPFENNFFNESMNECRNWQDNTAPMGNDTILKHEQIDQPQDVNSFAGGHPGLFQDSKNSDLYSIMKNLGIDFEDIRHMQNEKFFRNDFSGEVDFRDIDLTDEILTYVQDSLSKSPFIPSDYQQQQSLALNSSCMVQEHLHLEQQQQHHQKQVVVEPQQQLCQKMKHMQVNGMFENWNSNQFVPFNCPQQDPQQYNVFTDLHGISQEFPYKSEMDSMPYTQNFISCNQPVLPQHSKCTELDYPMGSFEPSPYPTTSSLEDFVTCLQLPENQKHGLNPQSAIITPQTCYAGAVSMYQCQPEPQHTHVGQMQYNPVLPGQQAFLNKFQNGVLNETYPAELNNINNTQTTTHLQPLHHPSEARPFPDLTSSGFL
Text: Our previous studies have shown that the activity of NAP-6 (2) and 10-Cl-BBQ (3) required the activation of the AhR pathway and the induction of CYP1 family of phase I metabolising enzymes ([Gilbert et al., 2020]; [Baker et al., 2021a]). Therefore, we sought to determine the activation of AhR using a stable AhR reporter assay in HT29-Lucia™ AhR cells, in the presence of each BBQ analogue (Figure 3). Activation of the AhR was indicated by enhanced luminescence caused by the translocation of the AhR to the nucleus of the cell and interaction with the xenobiotic response elements imbedded in the luciferase gene.
Stock solutions were prepared as follows and stored as 20 mM DMSO solutions at −20 °C. All cell lines were cultured in a humidified atmosphere 5% CO2 at 37 °C. The cancer cell lines were maintained in Dulbecco’s modified Eagle’s medium (DMEM) (Trace Biosciences, Australia) supplemented with 10% foetal bovine serum (FBS), 10 mM sodium bicarbonate, penicillin (100 IU/mL), streptomycin (100 μg/mL), and glutamine (4 mM). The non-cancer MCF10A cell line was cultured in DMEM:F12 (1:1) cell culture media, 5% heat inactivated horse serum, supplemented with penicillin (50 IU/mL), streptomycin (50 μg/mL), 20 mM Hepes, L-glutamine (2 mM), epidermal growth factor (20 ng/mL), hydrocortisone (500 ng/mL), cholera toxin (100 ng/mL), and insulin (10 μg/mL). The AhR reporter cell line HT29-Lucia™ (Invivogen, United States) was maintained in DMEM supplemented with 10% heat inactivated FBS, L-glutamine (2 mM), penicillin (100 IU/mL), streptomycin (100 μg/mL), 100 μg/mL Normocin™, and 100 μg/mL of the selective antibiotic Zeocin™. All cell lines were purchased from the American Type Culture Collection (ATCC), except for A2780 and A431 which were from the European Collection of Authenticated Cell Cultures (ECACC), and SJ-G2 cell line which was from Dr Mary Danks, St Jude Children’s Research hospital, Memphis, TN.
The activity of the AhR signalling pathway was measured using the stably transfected AhR cell line, HT29-Lucia™ (Invivogen, United States). This cell line stably expresses the secreted Lucia luciferase reporter gene under the control of a minimal promoter coupled with the human CYP1A1 gene entire regulatory sequence, containing six DREs. The Lucia luciferase reporter protein is readily measurable in the cell culture supernatant using QUANTI-Luc™. For the determination of AhR activity, 4 × 10^4 cells in 180 μL was plated into each well of a 96 well micro-titre plate in the absence of antibiotics and allowed to culture for 24 h prior to the addition of test compounds in a volume of 20 μL. At the indicated time, 20 μL of cell supernatant was transferred to a white luminometer plate and 50 µL of QUANTI-Luc was added immediately prior to reading the luminescence using a GloMax Explorer Luminescence Plate Reader. The promoter activity was conducted in duplicate and the values expressed as fold-change relative to DMSO (0.1%) treated cells. The AhR ligand, FICZ (6-formylindolo[3,2-b]carbazole) and AhR inhibitor CH223191 were included for study as positive and negative controls, respectively. […] Results are presented as the mean ± standard error of the mean (SEM) of analysis conducted in duplicate and repeated on three separate occasions.

CYP1A1 mRNA = assay: Gene expression analysis (qPCR) in MDA-MB-468 cells; type: cell-based, human; settings: 1.0 μM, 6 h
Method: (§1) These analogues were specifically chosen because they were synthesised without the production of regioisomers, their structural differences are small while their biological differences are large, c.f. […] Neither analogue altered the expression of SULT1A1 (Figure 4D).
(§2) Gene expression was examined in MDA-MB-468 cells following 6 h treatment. Total RNA was extracted using the RNeasy Mini Kit (Qiagen) according to the manufacturer’s instructions. One µg of RNA was reverse transcribed using the QuanitTect Reverse Transcription Kit (Qiagen) according to the manufacturer’s instructions. Rotor-Gene SYBR Green PCR Kit (Qiagen) was used to perform qPCR on a Rotor-Gene 3,000 Thermo-Cycler Instrument using β2-microglobulin as a housekeeping gene (Qiagen). The primer sequences were purchased from Qiagen as follows: AhR (QT02422938), CYP1A1 (QT00012341), CYP1B1 (QT00209496), SULT1A1 (QT01665489), and β2M (QT00088935). HotStar Taq activation (95 °C for 5 min) was followed by 40 cycles of denaturation (95 °C for 5 s), and annealing/extension (60 °C for 10 s). The comparative Ct value method was used for data analysis. Results are presented as the mean ± standard error of the mean (SEM) of analysis conducted in duplicate and repeated on two separate occasions. Significant test results were determined using T-test analysis at p < 0.01 with a two tail distribution.

CYP1B1 mRNA = assay: as above; type: cell-based, human; settings: 1.0 μM, 6 h
Method: as §1, §2

[1] = tested on: broad panel of cancer cell lines and non-cancer breast cell line MCF10A; settings: ref Gilbert et al., 2017; Gilbert et al., 2020; cited from earlier work
[2] = Solubility in the compound testing media; type: physicochemical
[3] = tested on: MCF10A normal breast cells; assay: MTT growth inhibition with CYP1 (αNF) or SULT1A1 (quercetin) inhibitor; type: cell-based, human; settings: 3 and 5 at 0.1 µM, αNF 10 µM, quercetin 5 µM, 72 h (Supp Figure 1)
Method: This analysis confirms that both CYP1 and SULT1A1, activity is needed to induce the growth inhibitory effect of the BBQ analogue.
Cells in logarithmic growth were transferred to 96-well plates. Cytotoxicity was determined by plating cells in duplicate in 100 μL medium at a density of 2,500–4,000 cells/well in 96 well plates. On day 0, (24 h after plating) when the cells were in logarithmic growth 100 μL medium with or without the test agent was added to each well. After 72 h drug exposure growth inhibitory effects were evaluated using the MTT (3-[4,5-dimethylthiazol-2-yl]-2,5-diphenyltetrazolium bromide) assay with absorbance read at 540 nm. An eight-point dose response curve was produced, using MS Excel software. From these dose-response curves, the GI50 value was calculated, representing the drug concentration at which cell growth is 50% inhibited based on the difference between the optical density values on day 0 and those at the end of drug exposure ([Bradshaw et al., 2008]; [Zhang et al., 2009]). Each data point was conducted in duplicate and the mean ± S.E.M. calculated from four to five replicates (n = 4 or 5), which were performed on separate occasions and separate cell line passages. Where shown, significant test results were determined using T-test analysis at p < 0.01 and p < 0.05 with a two tail distribution.
Supp Figure 1. CYP1 and SULT1A1 inhibition ameliorates the effect of 3 and 5. Growth inhibition (72 h, MTT assay) of 3 and 5 (0.1 µM) in the presence of the CYP1 family inhibitor, α-naphthoflavone (αNF, 10 µM) and SULT1A1 inhibitor, quercetin (qu, 5 µM) in (A) MDA-MB-468 breast cancer cells and (B) MCF10A normal breast cells. Significant differences are at the P < 0.01 ** level, using a paired T-test with a two-tailed distribution.

## 6-formylindolo[3,2-b]carbazole [FICZ, reference compound]
AhR; 0.5 μM, positive control
  AhR activation, Fold Reporter Induction: 2.7 fold
CYP1A1 mRNA
  CYP1A1 Fold change (mRNA vs DMSO control): 19 fold
CYP1B1 mRNA
  CYP1B1 Fold change (mRNA vs DMSO control): 3.7 fold

## Cc1ccccc1N=Nc1ccc(NC(=O)c2ccnn2C)c(C)c1 [CH223191, reference compound]
AhR; 2.5 μM, negative control
  AhR activation, Fold Reporter Induction: 0.7 fold

## N#C/C(=C\c1ccc[nH]1)c1ccc(Cl)c(Cl)c1 [Compound 1, (Z)-2-(3,4-dichlorophenyl)-3-(1H-pyrrol-2-yl)acrylonitrile]
[1]
  selective targeting of certain breast cancer cell lines compared with normal breast cells or other tumour types (fold): more than 500 fold

## O=c1c2cccc3cccc(c32)c2nc3c(Cl)cc(Cl)cc3n12 [Compound 6, 10,12-Dichloro-7H-benzo[de]benzo[4,5]imidazo[2,1-a]isoquinolin-7-one]
[2]
  solubility in the compound testing media: insoluble
other
  melting point: 292 to 294 °C

## O=c1c(O)c(-c2ccc(O)c(O)c2)oc2cc(O)cc(O)c12 [quercetin, reference compound]
[3]
  effect on growth in normal MCF10A cells: Neither 3, 5, αNF, or quercetin affected growth

## O=c1cc(-c2ccccc2)oc2c1ccc1ccccc12 [α-naphthoflavone, reference compound]
[3]
  effect on growth in normal MCF10A cells: Neither 3, 5, αNF, or quercetin affected growth
